Measured values as given in paper PMC3551932, “STK295900, a Dual Inhibitor of Topoisomerase 1 and 2, Induces G2 Arrest in the Absence of DNA Damage” (PLoS ONE, 2013).

What was measured:
hTERT RPE-1 cells = test: Cell growth inhibition assay, hTERT RPE-1; format: cell-based, human; conditions: Homo sapiens, hTERT-RPE1, 96 h; Table 2 comparison; hTERT RPE-1, non-cancer; growth up to 4 days
Excerpt: (§1) Human epitheloid cervical carcinoma HeLa cells, human breast adenocarcinoma MCF7 and MDA-MB-231cells, human hepatocellular carcinoma HepG2 cells, human colon adenocarcinoma HT-29 cells, and human colorectal carcinoma HCT-116 cells were purchased from ATCC® and maintained in DMEM medium. Human prostate carcinoma PC-3 cells (purchased from ATCC®), human gastric carcinoma SNU-484 and SNU-601(obtained from Korean Cell Line Bank (KCLB)), human leukemia K-562 and HL-60 cells (purchased from ATCC®), immortalized human prostate epithelial 267B1cells, and immortalized human embryonic lung fibroblast MRC5CV1 cells were maintained in RPMI 1640 medium whereas immortalized retinal pigment epithelial hTERT RPE-1 cells (purchased from ATCC®) were maintained in DMEM/F12 medium. All cell lines were cultured in media supplemented with 10% fetal bovine serum, 100 U/ml penicillin, and […] streptomycin at 37°C in a 5% CO2 incubator.
(§2) Cells were seeded at the appropriate amount (1–2×10^3 cells) in triplicate in 96-well plates for 24 h and then treated with various concentrations of STK295900. Cell growth was determined by using EZ-CyTox cell viability assay kit (Daeil Lab. Service, Seoul, Korea). Ten microliters of WST solution were added to the treated cells at 24, 48, 72, and 96 h. Cells were further incubated at 37°C for 2 h and the absorbance was measured at 450 nm.

HeLa cells [1] = test: Antagonistic effect on Top poison-induced DNA damage (γ-H2A.X immunoblot); format: cell-based, human
Description: Cells were lysed with cold RIPA buffer (50 mM Tris-HCl pH 8.0, 150 mM NaCl, 1% NP-40, 0.5% sodium deoxycholate, 0.1% SDS) containing freshly added protease inhibitor, phosphatase inhibitor (SIGMA), 1 mM DTT, and 1 mM Na3VO4 on ice for 1 h. Whole cell lysates were centrifuged at 15,000 rpm for 20 min and then the supernatant was transferred into a new tube. An appropriate amount of cell lysate was subjected to SDS-PAGE. Then the resolved proteins were transferred onto a PVDF membrane (Bio-Rad) for immunoblot analyses with specific antibodies. The proteins were detected using chemiluminescence solution (Thermo Scientific, Rockford, IL).
Supercoiled DNA relaxation assay for (A) topoisomerase 1 (Top 1) and (B) topoisomerase 2 (Top 2). Supercoiled pBR322 plasmid DNA was incubated at 37°C for 30 min with Top 1 enzyme (A) or Top 2α (B) in the presence of various concentrations of indicated compounds. DNA samples were separated by electrophoresis on a 1% agarose gel, stained with ethidium bromide, and visualized by UV light. (−), supercoiled DNA alone; oc, open circular; sc, supercoiled. […] HeLa cells were pretreated with 10 µM of STK295900 for 30 min and then incubated with the indicated concentrations of camptothecin for 1 h. Treated cells were lysed and subjected to immunoblot analyses with antibody against γ-H2A.X. β-actin was used as a loading control. […] HeLa cells were pretreated with STK295900 at 10, 20, 30, or 50 µM or ICRF-193 at 10 µM for 30 min. […] Treated cells were then lysed and subjected to immunoblot analyses with antibody against γ-H2A.X. β-actin was used as a loading control.
The lysates were subjected to immunoblot analyses with γ-H2A.X antibody.

DNA gyrase = conditions: targeting DNA gyrase; cited from earlier work
HeLa cells [2] = test: Flow cytometric analysis for cell cycle distribution; format: cell-based, human; conditions: 24 h, control around 25%
Description: For cell cycle analysis, HeLa cells were harvested following compound treatment for 24 h and stained with propidium iodide (PI) according to the instruction of Cycle Test Plus DNA Reagent kit from BD Biosciences (San Jose, CA). Flow cytometric analysis was performed using a FACSCalibur instrument (Becton Dickinson, San Jose, CA).
Figure 2 STK295900 induces G2 phase arrest in HeLa cells. (A) Flow cytometric analysis for cell cycle distribution. HeLa cells were treated with the indicated concentrations of STK295900 for 24 h. Treated cells were then stained with propidium iodide (PI) and processed for cell cycle analysis. The bar graph represents the mean percentage of each cell cycle phase ± SD from three independent experiments. * = p<0.05 versus the respective G1, S, or G2/M phase of DMSO-treated cells. (B) Mitotic index of STK295900. HeLa cells were treated with the indicated concentrations of STK295900 for 24 h. Cells were then stained with Hoechst 33342 and mitotic cells were counted. […] (C) Cell cycle related proteins expression. […] Treated cells were lysed and subjected to immunoblot analyses with antibodies against cyclin A, cyclin B1, phospho-Histone H3 (S10), and Histone H3. β-actin was used as a loading control.

HepG2 cells = test: Cell growth inhibition assay, HepG2; format: cell-based, human; conditions: Homo sapiens, HepG2, 96 h, growth up to 4 days
Excerpt: as §1, §2

HeLa cells [3] = test: Cell growth inhibition assay, HeLa; format: cell-based, human; conditions: Homo sapiens, 96 h, growth up to 4 days
Excerpt: as §1, §2

267B1 cells = test: Cell growth inhibition assay, 267B1; format: cell-based, human; conditions: Homo sapiens, 96 h; Table 2 comparison; 267B1, non-cancer; growth up to 4 days
Excerpt: as §1, §2

MCF7 cells = test: Cell growth inhibition assay, MCF7; format: cell-based, human; conditions: Homo sapiens, MCF7, 96 h, growth up to 4 days
Excerpt: as §1, §2

## Nc1ccc(-c2nc3ccc(-c4ccc5nc(-c6ccc(N)cc6)[nH]c5c4)cc3[nH]2)cc1 [STK295900, 4,4′-(3H,3′H-5,5′-bibenzimidazole-2,2′-diyl)dianiline]
hTERT RPE-1 cells
  IC50: 3430 nM
HeLa cells [1]; pretreated up to 50 µM for 30 min, then 10 µM etoposide 1 h
  effect of pretreatment on etoposide-induced γ-H2A.X: could not prevent
HeLa cells [1]; pretreated with 10 µM for 30 min, then camptothecin 1 h
  effect of pretreatment on camptothecin-induced γ-H2A.X: dramatically reduced
DNA gyrase
  anti-staphylococcal activity: potent anti-staphylococcal agent
HeLa cells [2]; 0.5 µM
  G2/M population: about 35%
HeLa cells [2]; 1 µM
  G2/M population: ~55%
HeLa cells [2]; 5 µM
  G2/M population: ~65%
HepG2 cells; Table 1, HepG2, hepatocellular carcinoma
  IC50: 170 nM
HepG2 cells; Table 2 comparison, HepG2
  IC50: 140 nM
HeLa cells [3]; Table 1, cervical carcinoma
  IC50: 520 nM
HeLa cells [3]; Table 2 comparison
  IC50: 640 nM
267B1 cells
  IC50: 1610 nM
MCF7 cells; Table 1, MCF7, breast adenocarcinoma
  IC50: 60 nM
MCF7 cells; Table 2 comparison, MCF7
  IC50: 40 nM
